This is an account of results in US8039634B2, “Oxazole hydroxamic acid derivatives and use thereof” (SK Holdings Co., Ltd., priority 2005, dated 2011).

By IC50 is commonly meant the midpoint of a concentration-inhibition curve. A low value points to greater potency in that assay. In general, GI50 refers to the concentration giving 50% growth inhibition. Broadly, the solubility is how much of the substance goes into solution per volume. Low values mean a poorly soluble substance, high ones a readily soluble substance.

≈ marks a conversion by molar mass, not a printed value.

The subject of one data set is HDAC. In words: Inhibition of HDAC activity (fluorometric, HeLa nuclear extract). The data set is classed as biochemical, human. The following applies: 30 min room temperature. As to the method:
In order to determine inhibitory activity of a compound in accordance with the present invention on HDAC, evaluation was carried out using an aminocoumarin derivative of ω-acetylated lysine as a substrate for an enzyme. As an enzyme source, a nuclear extract obtained from human cervical cancer cell line HeLa cells was used. The above evaluation was carried out with modification of a method based on the details described in Weegener et al. (2003) Analytical Biochemistry, 321, 203-208. That is, […], […] of nuclear extract and a compound of Example 1 at different concentrations were added and maintained at room temperature for 30 min. Trypsin (10 mg/ml) and Trichostatin A (final concentration: […]) were added to the resulting mixture which was reacted at the same temperature for 20 min, thereby terminating the reaction. The enzyme activity-inhibitory concentration of the compound added was determined using a fluorometer. As a control compound, suberoylanilide hydroxamic acid (SAHA) was used. IC50 in Table 1 below refers to a concentration of the compound that leads to a 50% decrease in activity of HDAC.

The next data set concerns HeLa. In words: In vitro toxicity / growth inhibition (CellTiter-Glo), HeLa. The data set is classed as cell-based. Particulars: Homo sapiens, 48 hr. The method, then: (§1) In order to determine in vitro toxicity of a compound in accordance with the present invention, 18 species of human cancer cell lines (HeLa, cervical cancer cell line; HCT116, SW480, SW620, RKO, colon cancer cell lines; H460, H1299, A549, lung cancer cell lines; MCF7, MDA-MB231, MDA-MB453, breast cancer cell lines; Jurkat, K562, THP1, Ramos, U937, blood cancer cell lines; PC3, DU145, prostate cancer cell lines) were used. Cell lines were cultured in RPMI 1640 culture medium containing penicillin/streptomycin (100 units/mL) and heat-inactivated 5% fetal bovine serum (FBS) under standard culture conditions ([…], 5% CO2, and 100% relative humidity). Thereafter, single cell suspension was obtained via trypsin treatment and pipetting. The suspension was diluted with the same medium such that a cell density is in a range of 8×10^3 to 1.5×10^4 cells/well, and was transferred to a 96-well microtiter plate. After culturing for 24 hours, cell cultures were treated with respective compounds of Examples at various concentrations. […] The above evaluation was carried out according to the methods given in a manufacture's manual. GI50 in Table 1 below refers to a concentration that compounds of Examples cause 50% growth inhibition of various cancer cells.
A general note: Cellular ATP, detected with luciferase, serves as a proxy for viable cell number.

Another data set deals with HCT116. In words: In vitro toxicity / growth inhibition (CellTiter-Glo), HCT116. The data set is classed as cell-based. Particulars: Homo sapiens, HCT-116; HCT116, 48 hr. As to the method: as §1
A further data set in a line: Solubility. The data set is classed as physicochemical.
In another data set the test system is H460. Description: In vitro toxicity / growth inhibition (CellTiter-Glo), H460. The data set is classed as cell-based. The following applies: Homo sapiens, NCI-H460; H460, 48 hr. As to the method: as §1
The subject of a further data set is Raw cell. Description: Inhibition of LPS-induced NO increases. The data set is classed as cell-based, Mouse. Particulars: 5 μM compound; for NO: LPS, 18 hours, Griess Reagent; for activity at 5 µM: Mus musculus, 18 h, relative to LPS alone control. As to the method: As one of the methods to confirm anti-inflammatory responses, inhibition of increases in nitric oxide (NO) due to lipopolysaccharide (LPS) was carried out. Mouse cell line (Raw cell) was cultured in RPMI 1640 culture medium containing penicillin/streptomycin (100 units/mL) and heat-inactivated 5% fetal bovine serum (FBS) under standard culture conditions ([…], 5% CO2, 37° C., and 100% relative humidity). Test compounds were dissolved in dimethylsulfoxide (DMSO) and were used as a final concentration of 1 to 40 μM. Cells were proliferated to a cell density of 5×10^3 to 2×10^4 cells on a 24-well plate and were treated with the respective compounds (equal amounts of 5 μM) 1 hour prior to treatment with LPS ([…]). The thus-treated cells were cultured for 18 hours, and thereafter the amounts of NO thus produced were measured using Griess Reagent. Measurement was confirmed using an absorption spectrophotometer at 540 nm. The value was expressed as percentage (%) relative to a control in which LPS alone was treated.
For orientation: Griess reagent forms a coloured azo dye with nitrite.

In turn, `COc1cccc(-c2oc(CCCCCCC(=O)NO)nc2-c2ccccc2)c1` [Example 3, 7-[5-(3-methoxy-phenyl)-4-phenyl-oxazol-2-yl]-heptanoic acid hydroxyamide] had an IC50 in the data set with HDAC of 0.00158 µM. Besides, the GI50 came to 16.9 µM with HeLa and 6.5 µM in the data set on HCT116. The solubility in “Solubility” was 200 µg/mL (≈ 507 µM).
`O=C(CCCCCCc1nc(-c2ccccc2)c(-c2ccc(F)cc2)o1)NO` [Example 9, 7-[5-(4-fluoro-phenyl)-4-phenyl-oxazol-2-yl]-heptanoic acid hydroxyamide] came in with an IC50 with HDAC of 0.00497 µM. The figures for the concentration for 50% growth inhibition (GI50) in the data set on HeLa, with HCT116 and with H460 were 14.2 µM, 5.9 µM and 19.1 µM, respectively. Further, the NO with Raw cell was determined as 71.4 μM/L. The molecule further yielded an activity at 5 µM in the data set with Raw cell of 79.4%.
For the molecule `CCOc1ccc(-c2oc(CCCCCCC(=O)NO)nc2-c2ccccc2)cc1` [Example 8, 7-[5-(4-ethoxy-phenyl)-4-phenyl-oxazol-2-yl]-heptanoic acid hydroxyamide], the IC50 with HDAC amounted to 0.0012 µM. Moreover, the GI50 in the data set with HeLa is 1.5 µM; in the data set on HCT116 it was 1.2 µM; with H460, 4.2 µM. Moreover, in “Solubility”, the solubility was 200 µg/mL (≈ 490 µM). The molecule further came in with an NO in the data set on Raw cell of 63.7 μM/L. The activity at 5 µM with Raw cell is 57.7%.
On to `O=C(CCCCCCc1nc(-c2ccccc2)c(-c2ccccc2F)o1)NO` [Example 5, 7-[5-(2-fluoro-phenyl)-4-phenyl-oxazol-2-yl]-heptanoic acid hydroxyamide], for which inhibition in the data set with HDAC was half-maximal at 0.00174 µM (IC50). Also, the GI50 in the data set on HeLa was 3.6 µM; with HCT116, 10.7 µM; in the data set on H460, 14.2 µM. In “Solubility”, this molecule returned a solubility of 300 µg/mL (≈ 784 µM). In addition, in the data set with Raw cell, the NO is on record as 69.0 μM/L. Besides, the activity at 5 µM in the data set on Raw cell is 72.7%.
In the data set on HDAC, `COc1ccccc1-c1oc(CCCCCCC(=O)NO)nc1-c1ccccc1` [Example 2, 7-[5-(2-methoxy-phenyl)-4-phenyl-oxazol-2-yl]-heptanoic acid hydroxyamide] displayed an IC50 of 0.00661 µM. In addition, the GI50 in the data set with HeLa came out at 9.33 µM. This molecule showed a GI50 in the data set on HCT116 of 8.3 µM. The molecule also displayed a solubility in “Solubility” of 400 µg/mL (≈ 1010 µM). In addition, in the data set with Raw cell, the NO came to 77.9 μM/L and the activity at 5 µM came to 97.8%.
In the data set with HDAC, `COc1ccc(-c2oc(CCCCCCC(=O)NO)nc2-c2ccccc2OC)cc1` [Example 11, 7-[4-(2-methoxy-phenyl)-5-(4-methoxy-phenyl)-oxazol-2-yl]-heptanoic acid hydroxyamide] registered an IC50 of 0.00724 µM. The GI50 came to 1.2 µM in the data set with HeLa, 2.4 µM in the data set on HCT116 and 10.2 µM in the data set with H460. For the same molecule, the concentration in solution in “Solubility” (solubility) came to 400 µg/mL (≈ 942 µM). This molecule also gave an NO with Raw cell of 65.0 μM/L. Further, in the data set on Raw cell, the activity at 5 µM was determined as 61.3%.
In the data set on HDAC, `Cc1ccc(-c2oc(CCCCCCC(=O)NO)nc2-c2ccccc2)cc1` [Example 7, 7-(4-phenyl-5-p-tolyl-oxazol-2-yl)-heptanoic acid hydroxyamide] yielded an IC50 of 0.002 µM. In addition, the GI50 is 2.4 µM in the data set on HeLa, 2.7 µM in the data set on HCT116 and 9.9 µM in the data set on H460. In “Solubility”, this molecule showed a solubility of 200 µg/mL (≈ 528 µM).
For the molecule `O=C(CCCCCCc1nc(-c2ccc(F)cc2)c(-c2cccnc2)o1)NO` [Example 15, 7-[4-(4-fluoro-phenyl)-5-pyridin-3-yl-oxazol-2-yl]-heptanoic acid hydroxyamide], inhibition in the data set with HDAC was half-maximal at 0.0384 µM (IC50). Besides, it took 30.1 µM to inhibit growth in the data set with HeLa by half (GI50). This molecule also displayed a GI50 in the data set on H460 of 69 µM. The same molecule came in with a solubility in the data set “Solubility” of 2000 µg/mL (≈ 5220 µM). In the data set with Raw cell, this molecule gave an NO of 66.6 μM/L and an activity at 5 µM of 65.8%.
In turn, `O=C(CCCCCCc1nc(-c2cccc(F)c2)c(-c2cccnc2)o1)NO` [Example 16, 7-[4-(3-fluoro-phenyl)-5-pyridin-3-yl-oxazol-2-yl]-heptanoic acid hydroxyamide] came in with an IC50 with HDAC of 0.0323 µM. Moreover, in the data set on HeLa, growth was halved (GI50) at 20.7 µM. Besides, in the data set on H460, the GI50 came out at 52.3 µM. Also, the solubility in “Solubility” is 1400 µg/mL (≈ 3650 µM). In the data set on Raw cell, this molecule gave an NO of 63.0 μM/L and an activity at 5 µM of 55.7%.
